Results on two compounds are retold here after patent US20170319641A1, “MUCOADHESIVE EMOLLIENT” (BIOGLAN AB, priority 2014, published 2017).

The test system of data set [1] is Mucin. Kind of data set: Mucoadhesion, tensile strength with texture analyzer, towards mucin. The settings on record: upper sample Mucin. Here is the method: Mucoadhesion is related to the ability to adhere to the mucosa. […] Hygroscopic formulations absorbs water molecules but at different timescales depending on the composition. Tensile strength using micro balance texture analyzer was used to measure the mucoadhesion. The work needed to separate two layers from each other is calculated as well as the peak measured force.
The microemulsions show quite strong mucoadhesion, with similar tensile strength values. To get some reference values, the mucoadhesion of olive oil, propylene glycol and PGMO were also tested as well as the adhesion of microemulsions towards water. Propylene glycol was chosen to determine if humectant properties on its own had any influence on the adhesion strength.

For data set [2] the following is noted: pure liquids at 25° C.; cited from earlier work.

Compound `CC(O)CO` (stereo not shown) [Propylene Glycol, propylene glycol] had a Peak force in data set [1] of 0.50 ± 0.05 kg. Moreover, the Mucoadhesion in data set [1] (work needed to separate layers) was determined as 0.051 ± 0.009 kg·s. For the same compound, the Surface tension in data set [2] is recorded as 45.6 mN/m.

For `OCC(O)CO` [glycerol], the Surface tension in data set [2] is 76 mN/m.
